Values joined by “and” are separate entries in the source; they are usually repeats but may differ in a detail not shown here. Equal entries are not always repeated.
What was measured:
[1] = tested on: mesenchymal stem cells derived from human umbilical cord; experiment: Induction of pluripotency stem cells from mesenchymal stem cells (colony formation); assay type: cell-based; details: DMEM F-12 basic medium plus 0.1 v/v % energy water
Method: An experiment for measuring induction ability of pluripotency stem cells from mesenchymal stem cells derived from human umbilical cord according to a concentration of the phlorotannin fraction prepared in Example 1-1 was performed. In a control group, DMEM F-12 (Gibco) as a dedicated medium of MSC, 10% FBS, 100 unit/ml penicillin, and 50 μg/ml streptomycin were used as a basic medium (Normal), and in an experimental group, mesenchymal stem cells derived from human which was subjected to three sub-cultures were used and phlorotannin fractions having concentrations of 1 μg/ml, 20 μg/ml, 50 μg/ml, 100 μg/ml, 400 μg/ml, 800 μg/ml, and 1000 μg/ml and 0.1 v/v % energy water (purified deionized water containing SiO2, Al2O3, TiO3, Fe2O3, CaO, Na2O, K2O, and LiO, STC) were added in the medium. The mesenchymal stem cells derived from human umbilical cord were isolated and washed and mononuclear cells were inoculated in a 6-well plate (dish) with 1×10^4 cells and maintained and incubated at 37° C. and 5% CO2.
An experiment for measuring induction ability of pluripotency stem cells from mesenchymal stem cells derived from human according to a concentration of compound 1 among the compounds isolated in Example 1-2 was performed. […]

[2] = tested on: OCT4, SOX2, SSEA-4, and AP; experiment: Immunochemical / AP staining of induced colonies for pluripotency stem cell-specific markers; assay type: cell-based, human; details: confocal microscopy; antibodies for OCT4, SOX2, SSEA-4; AP fluorogenic dye
Method: With respect to the pluripotency stem cells induced by the method of the present invention, whether to express stage-specific embryonic antigen4 (SSEA-4), alkaline phosphatase (AP), OCT4, and SOX2 as specific proteins to embryonic stem cells was analyzed by using antibodies thereof and an immunochemical staining method. During the staining process, cells were first fixed by using 4% paraformaldehyde and washed with PBS, and blocked with a 1% BSA solution. The cells were treated with primary antibodies for OCT4, SOX2, and SSEA-4 and reacted at 4° C. for 18 hours, and then washed with PBS, treated with secondary antibodies with fluorescence (FITC) to the primary antibodies, and reacted at room temperature for 1 hour. The cells were washed with PBS and then the expression was analyzed by using a confocal microscope. […] AP staining was performed with an alkaline phosphatase cell-permeable fluorogenic substrate dye, the AP fluorogenic dye was diluted in a DMEM F-12 culture solution to be treated in colonies, and then reacted for 20 to 30 min, washed with the DMEM F-12 culture solution two times, and the expression was analyzed by using a confocal microscope, and the result was illustrated in FIG. 17. […]

With `Oc1cc(O)cc(Oc2c(O)cc(O)c3c2Oc2c(O)cc(O)c(-c4c(O)cc(O)c5c4Oc4c(O)cc(Oc6c(O)cc(O)cc6O)c(Oc6cc(O)cc(O)c6)c4O5)c2O3)c1` [compound 1, 2-O-(2,4,6-trihydroxyphenyl)-6,6′-bieckol] the “time after which colony formation was observed” value ([1]; at the colony-forming concentrations) was 14 days, the “concentration at which colonies were formed” value ([1]; tested 1, 20, 50, 100, 400, 800, 1000 μg/ml, colonies only at stated concentrations) was 50 µg/mL and 100 µg/mL and the “staining of colonies by pluripotency stem cell-specific markers” value [2] was “stained by OCT4, SOX2, SSEA-4, and AP”.
